Consider three molecules from patent US20180193361A1, “GUT ANTI-INFLAMMATORY AGENTS FOR REGULATION OF HIGH BLOOD GLUCOSE LEVELS” (UNIVERSITY HEALTH NETWORK, priority 2015, published 2018).

One data set deals with gut epithelial barrier. The note with it: models of IBD (Di Paolo et al., 1996; Liu et al., 2009); cited from earlier work.
For data set [1] the following is noted: tablet; the remaining has local effects in the colon; cited from earlier work.
Another data set has as its system MODE-K intestinal cells. In words: ZO-1 expression in MODE-K cells treated with IFNγ. It is filed as cell-based, murine. Conditions: recombinant mouse IFNγ 5 or 10 ng/mL, 24 hours. How it is done:
To measure the effect of IFNγ on tight-junction gene expression, we treated MODE-K cells with recombinant mouse IFNγ (Biolegend). We purified bulk dendritic cells and T cells from murine small bowels and spleens using a negative selection DC or T cell isolation kit (Stem Cell Technologies). We plated T cells at 5×10^5 cells/well with plate-bound anti-CD3/CD28 (1 μg/ml, Biolegend). […] We collected supernatants for cytokine measurements after 72 hour incubation. […] After 24 hours, we washed the cells with PBS and co-cultured them (1×10^4 cells/well) with OVA323-339 peptide and OT-II splenic or small bowel T cells (5×10^4 cells/well) for 48 hours. Supernatants were collected at 48 hours for cytokine measurement.
The murine intestinal epithelial cell line derived from C3H/He mice. […]
We extracted total RNA from isolated or cultured cells using a RNeasy Mini Kit (Qiagen), and for subcutaneous adipose tissue (SAT) and VAT we used a RNeasy Lipid Extraction kit (Qiagen). […] We assessed expression of adipocyte P2 (aP2), CCAAT/enhancer-binding protein-α (CEBPα), Peroxisome proliferator-activated receptor-γ (PPARγ), and sterol regulatory element-binding protein (SREBP) cDNA. […] We calculated relative fold changes in gene expression normalized to 18s or GAPDH by the ΔΔCT method using the equation 2-ΔΔCT. […]

In the case of `O=C(O)CCNC(=O)c1ccc(/N=N/c2ccc(O)c(C(=O)O)c2)cc1` [Balsalazide], the “intactness of the gut epithelial barrier” value in the data set with gut epithelial barrier is given as “beneficial effects”.
Regarding `O=C(O)c1cc(/N=N/c2ccc(S(=O)(=O)Nc3ccccn3)cc2)ccc1O` [Sulfasalazine], in data set [1], the “absorbed in small bowel” value is recorded as “approximately 20%”.

B1: IFNγ: recombinant mouse IFNγ (Biolegend) (protein, UniProt P01580 23-155, looked up)
Interferon gamma: HGTVIESLESLNNYFNSSGIDVEEKSLFLDIWRNWQKDGDMKILQSQIISFYLRLFEVLKDNQAISNNISVIESHLITTFFSNSKAKKDAFMSIAKFEVNNPQVQRQAFNELIRVVHQLLPESSLRKRKRSRC
In the case of B1, the “ZO-1 tight junction gene expression” value in the data set on MODE-K intestinal cells is “reduce”.
